Data published in US12344879B2, “Transgenic bacteria with expanded amino acid usage and nucleic acid molecules for use in the same” (BOARD OF REGENTS, THE UNIVERSITY OF TEXAS SYSTEM, priority 2015, dated 2025).
Several values for one entry are separate records, joined by “and”; a condition that tells them apart may be missing. Identical values can stand only once.

Tests used:
[1] = test system: NMC-A β-lactamase reporter (C69X); assay: NMC-A β-lactamase reporter assay (ampicillin resistance by amber suppression with selenocysteine); assay type: cell-based, E. coli DHΔabc; settings: DHΔabc; for ampicillin concentration supporting growth (β-lactamase activity): NMC-A C69X reporter, co-expressed with SelA
From the text: A method of genetic selection capable of discriminating different levels of selenocysteine incorporation was developed. To specifically ‘addict’ a reporter protein to selenocysteine rather than serine, the NMC-A β-lactamase from Enterobacter cloacae was used. […] Then cysteine 69 was replaced with an amber stop codon (X69; FIG. 1a) for library selection, hypothesizing that the incorporation of selenocysteine and the formation of a selenyl-sulfhydryl bond would restore activity. (Swardn et al., 1998)
To eliminate any crosstalk between the tRNA^Sec library and the endogenous selenocysteine incorporation machinery, the selA, selB and selC genes (encoding SelA, SelB and tRNA^Sec respectively) were deleted from E. coli DH10B (designated DHΔabc). Cells containing the reporter plasmid pNMC-A C69X and the accessory plasmid pRSF-eSelA (expressing SelA) were transformed with plasmid pMB1-ZU containing the tRNA^Sec antideterminant library. Transformants were plated on media containing a gradient of ampicillin concentrations for selection of mutants capable of selenocysteine-specific suppression. The single colonies that arose covered a range of ampicillin concentrations. […] Of these tRNA^Sec variants, only G7-C66:U49-G65:C50-U64 was detected at the two highest ampicillin concentration (200 and 250 μg·ml^−1).
The tRNA^Sec antideterminant library was generated by enzymatic inverse PCR using oligonucleotide primers (Table 2) to randomize the six positions identified as the main antideterminant for EF-Tu binding. Following self ligation for 16 hours, DNA was ethanol precipitated with GlycoBlue (Ambion) and transformed by electroporation into E. coli DHΔabc containing the plasmids pNMC-A C69X and pRSF-eSelA. Transformants were diluted in 200 ml LB medium containing 12.5 μg·mL^−1 Zeocin, 6.25 μg·mL^−1 tetracycline and 25 μg·mL^−1 kanamycin and incubated overnight. Following overnight growth, cells were diluted 1/50 in LB medium containing 6.25 μg·mL^−1 Zeocin, 3.75 μg·mL^−1 tetracycline, 12.5 μg·mL^−1 kanamycin, 1 μM Na2SeO3 and 20 μg·mL^−1 L-cysteine and incubated for one hour. A series of 250 μl aliquots of cells were plated on LB agar containing 6.25 μg·mL^−1 Zeocin, 3.75 μg·mL^−1 tetracycline, 12.5 […], 1 μM Na2SeO3 and 20 μg·mL^−1 L-cysteine and 50-300 μg·mL^−1 ampicillin in 50 μg·mL^−1 increments. After 20 hours at 37° C. individual colonies were observed on plates containing 50-200 μg·mL^−1 ampicillin. Plasmid DNA was isolated from a selection of colonies from all plates and tRNA^Sec mutations determined by Sanger sequencing.
NotI/NcoI fragments containing tRNA^SecUx were subcloned into pRSF-eSelA to generate pRSF-UX-eSelA. pRSF-U-eSelA variants described in Table 1 were transformed into E. coli DHΔabc containing the reporter plasmid pNMC-A C69TAG. DHΔabc cells containing pNMC-A and pRSFDuet-1 were used as a positive control. DHΔabc cells harboring pNMC-A C69S and pRSF-UX-eSelA, and pNMC-A C69TAG and pRSF-UX-ΔSelA were used as controls for selenocysteine dependent β-lactamase activity. Transformants were cultured overnight in LB medium containing 6.25 μg·mL^−1 tetracycline, 25 μg·mL^−1 kanamycin, 1 μM Na2SeO3 and 20 […]. Following overnight growth, cells were diluted 1/10 in LB medium containing antibiotics, selenite and L-cysteine and incubated for three hours. […]

[2] = test system: E. coli formate dehydrogenase H (FdhH); assay: Benzyl viologen assay; assay type: cell-based, E. coli DHΔabcF; settings: FdhH U140TAG or U140S reporter, co-expressed with SelA, anaerobic
Protocol: The tRNA^Sec variant containing the G7-C66:U49-G65:C50-U64 (SEQ ID NO: 18) antideterminant sequence was designated tRNA^SecUx and was compared with the previously designed chimera (tRNA^UTu) and with a tRNA^Sec derivative designed to have an antideterminant region that should tightly bind EF-Tu (tRNA^UG; FIG. 2a). […] The hybrid tRNA^UTu incorporated selenocysteine and could grow on 75 μg·ml^−1. […] To further confirm tRNA^SecUx incorporated selenocysteine in response to amber stop codons, a standard colorimetric assay was employed based on the activity of the endogenous E. coli selenoprotein formate dehydrogenase H (FdhH) (FIG. 2b).
E. coli DH10B cells containing pRSFDuet-1 and pcat-pheS were used as a positive control. DHΔabcF cells harboring p15A-fdhF U140S and pRSF-UX-eSelA, and p15A-fdhF U140X and pRSF-UX-ΔSelA were used as controls for selenocysteine dependent formate dehydrogenase activity. Transformants were grown overnight at 37° C. in LB medium supplemented with 12.5 μg·mL^−1 tetracycline and 50 μg·mL^−1 kanamycin. Overnight cultures were diluted 1/20 in a final volume of 2 ml and incubated for three hours. Cultures were normalized to OD600=0.5 and 5 μl aliquots were dotted on LB agar plates containing 3.75 μg·mL^−1 tetracycline, 12.5 μg·mL^−1 kanamycin, 5 mM sodium formate, 10 μM Na2MoO4, 1 μM Na2SeO3 and 20 μg·mL^−1 L-cysteine. Plates were incubated at 37° C. for 3 h under aerobic conditions and then transferred to anaerobic conditions at 37° C. for 60 h. Upon removal from the anaerobic chamber, plates were immediately overlaid with agar containing 1 mg·mL^−1 benzyl viologen, 250 mM sodium formate and 25 mM KH2PO4 at pH 7.0. Plates were photographed within 1 h of overlaying.

Row | Substance | ampicillin concentration supporting growth (β-lactamase activity) [1] | ampicillin concentration at which the tRNA variant was detected in library selection ([1]; antideterminant library, pNMC-A C69X, pRSF-eSelA) | FdhH activity (reduction of benzyl viologen) [2]
1 | tRNA^SecUx: Evolved E. coli tRNA^Sec variant with the G7-C66:U49-G65:C50-U64 antideterminant sequence and CUA anticodon | up to 400 μg·ml^−1 | 200 µg/mL and 250 µg/mL | produced active FdhH
2 | tRNA^UTu (GGAAGATGTGGCCGAGCGGTTGAAGGCACCGGT; expressed or natural sequence) | 75 µg/mL |  | produced active FdhH
